Results as given in US11667673B2, “Therapeutically active compounds and their methods of use” (Servier Pharmaceuticals LLC, priority 2013, dated 2023).

Test system: U87MG cells
Experiment: Cellular assay for IDH1m inhibitors: inhibition of 2-HG production in U87MG cells (LC-MS)
Type: cell-based
Method: Cells (HT1080 or U87MG) are grown in T125 flasks in DMEM containing 10% FBS, 1× penicillin/streptomycin and 500 ug/mL G418 (present in U87MG cells only). They are harvested by trypsin and seeded into 96 well white bottom plates at a density of 5000 cell/well in 100 ul/well in DMEM with 10% FBS. […] Cells are incubated overnight at 37° C. in 5% CO2. The next day test compounds are made up at 2× the final concentration and 100 ul are added to each cell well. The final concentration of DMSO is 0.2% and the DMSO control wells are plated in row G. The plates are then placed in the incubator for 48 hours. […] The cell plate is placed back in the incubator for another 24 hours. At 72 hours post compound addition, 10 mL/plate of Promega Cell Titer Glo reagent is thawed and mixed. The cell plate is removed from the incubator and allowed to equilibrate to room temperature. Then 100 ul of Promega Cell Titer Glo reagent is added to each well of media. The cell plate is then placed on an orbital shaker for 10 minutes and then allowed to sit at room temperature for 20 minutes. The plate is then read for luminescence with an integration time of 500 ms.

| Compound | IC50 (inhibition of 2-HG production, U87MG cells, 48 hours) [nM] | IC50 (Homo sapiens, U-87 MG, 48 h) [nM] |
| --- | --- | --- |
| (S)—N—((S)-1-(2-Chlorophenyl)-2-(3,3-difluorocyclobutylamino)-2-oxoethyl)-1-(3-cyanophenyl)-N-(1H-indazol-7-yl)-5-oxopyrrolidine-2-carboxamide [compound 186] | < 100 |  |
| CN1C[C@@H](C(=O)N(c2cccc(F)c2)[C@H](C(=O)NC2CC(F)(F)C2)c2ccccc2Cl)N(c2cc(C#N)ccn2)C1=O [compound 79] |  | < 100 |
| O=C(NC1CCC(F)(F)CC1)[C@H](c1ccccc1Cl)N(C(=O)[C@@H]1CCC(=O)N1c1ncccn1)c1cccc(F)c1 [compound 4, (S)—N—((S)-1-(2-chlorophenyl)-2-((4,4-difluorocyclohexyl)amino)-2-oxoethyl)-N-(3-fluoro-phenyl)-5-oxo-1-(pyrimidin-2-yl)pyrrolidine-2-carboxamide] |  | < 100 |
